# Laboratory results from patent publication US10004711B2, “Methods and compositions comprising 10-hydroxy-2-decenoic acid” (DSM IP ASSETS B.V., priority 2014, dated 2018).
# Legend:
# [1] = system: Neurons from the brain's hippocampus; experiment: In vitro neurite extension (Map2a staining per neuron); assay type: cell-based, rat; settings: for % Map2a Staining/Neuron: 7 days incubation
# Procedure: Neurons from the brain's hippocampus were derived from embryonic day (E17) rat pups and incubated with QBA for 7 days. The cultures were then stained with neuron-specific marker, microtubule associated protein-2a (Map2a) and cell nuclei were stained with 4′,6-diamidino-2-phenylindole (DAPI). Fluorescent images of the staining were then captured with a confocal microscope. The staining was quantitated by dividing the percent area of the Map2a staining by the number of neurons.
# [2] = system: Neurons from the brain's hippocampus; experiment: Glutamate toxicity, mitochondrial health (TMRE); assay type: cell-based, rat; settings: for Mitochondrial Health (% Control): glutamate 25 μM 24 h
# Procedure: Neurons from the brain's hippocampus were derived from E17 pups and incubated for 7 days. The cells were pre-treated with QBA for 48 hours and subsequently challenged with glutamate (25 μM) for 24 hours. The cultures were then stained with propidium iodide, a marker of cell death, and with tetramethylrhodamine ethyl ester (TMRE), a marker for mitochondrial health. The fluorescence of each of these markers was then quantitated with a fluorimeter.
# [3] = system: 19-20 month-old male rats; experiment: Elevated plus-maze, rats fed QBA alone or QBA+DHA; assay type: in vivo, rat; settings: DHA 0.00
# Procedure: Rats were fed QBA and subjected to an elevated plus-maze. The elevated plus-maze was elevated ˜85 cm above the floor and consisted of two open and two closed arms of the same size (50×10 cm). The closed arms were surrounded by walls 40 cm high, and the arms were constructed of black acrylic slabs that radiated from a central platform (10×10 cm) to form a plus sign. Each rat was placed in the central platform facing one of the open arms, and its behavior was recorded during a 5-min testing period with video capture software. More time spent in the open arms is an indication of reduced anxiety-like state. Rats were tested at 18 months old (N=11-13 per group).
# The dose-response characteristics of 10-Hydroxy-2-decenoic acid's (QBA's) in combination with DHA for potential brain health benefits during aging were assessed for mood in 19-20 month-old male rats (N=11-14 per group). Rats were fed QBA alone or QBA+DHA and subjected to an elevated plus-maze.
# [4] = system: RAW264.7 mouse macrophage cell line; experiment: TNFα levels after LPS stimulation; assay type: cell-based; settings: for TNFα (pg/mL)/Cell Numbers: 24 h
# Procedure: Cultures of the RAW264.7 mouse macrophage cell line were pre-treated with 10-Hydroxy-2-decenoic acid (QBA) for 1 hour prior to stimulation with lipopolysaccharide (LPS, 100 ng/mL). After 24 hours of incubation, interleukin […] (IL-1β) and tumor necrosis factor-α (TNFα) levels were determined by Luminex technology and cell numbers were measured using Alamar Blue. Results are given as a ratio of cytokine concentration/cell number.
# [5] = Body weight of aged male rats fed QBA and/or DHA (Example 8); assay type: in vivo, rat
# Procedure: Aged male rats were fed 10-Hydroxy-2-decenoic acid (QBA) for approximately […] from 12-months to 20-months of age and the weight of rats was recorded.
# [6] = system: Young adult female Long-Evans rats; experiment: Conception index of female rats with abnormal ovulatory cycles; assay type: in vivo, rat; settings: for Conception Index (%): eight weeks, then mated
# Procedure: Young adult female Long-Evans rats (3 months-old) with abnormal ovulatory cycles were fed diets containing 10-Hydroxy-2-decenoic acid (QBA) or no QBA for eight (8) weeks and then mated with a male rat. Female rats having normal ovulatory cycles were used as positive controls and were not fed QBA. The conception index was determined. The conception index is a measure of conception efficiency and is equal to the number of pregnancies divided by the number of discernable mating sessions multiplied by 100.
# stem cells = settings: Hattori et al. 2009; cited from earlier work
structure (smiles),measurement,setting,value
"O=C(O)C=CCCCCCCCO [QBA, 10-Hydroxy-2-decenoic acid]",% Map2a Staining/Neuron,[1]; QBA 0.10 μM,0.29%
same,% Map2a Staining/Neuron,[1]; QBA 0.30 μM,0.32%
same,% Map2a Staining/Neuron,[1]; QBA 1.00 μM,0.30%
same,% Map2a Staining/Neuron,[1]; QBA 3.00 μM,0.31%
same,% Map2a Staining/Neuron,[1]; QBA 10.00 μM,0.32%
same,% Map2a Staining/Neuron,[1]; QBA 30.00 μM,0.32%
same,% Map2a Staining/Neuron,[1]; QBA 100.00 μM,0.27%
same,growth of brain cells in culture,[1]; summary of Table 1,increased the growth of brain cells in culture
same,Mitochondrial Health (% Control),[2]; QBA 0.10 μM pre-treatment 48 h,101.94 % Control
same,Mitochondrial Health (% Control),[2]; QBA 0.30 μM pre-treatment 48 h,112.27 % Control
same,Mitochondrial Health (% Control),[2]; QBA 1.00 μM pre-treatment 48 h,110.50 % Control
same,Mitochondrial Health (% Control),[2]; QBA 3.00 μM pre-treatment 48 h,106.39 % Control
same,Mitochondrial Health (% Control),[2]; QBA 10.00 μM pre-treatment 48 h,111.02 % Control
same,Mitochondrial Health (% Control),[2]; QBA 30.00 μM pre-treatment 48 h,114.72 % Control
same,Mitochondrial Health (% Control),[2]; QBA 100.00 μM pre-treatment 48 h,123.80 % Control
same,cell health after glutamate toxicity,[2]; summary of Table 3,increased cell health
same,Time (s) in Open Arm,[3]; QBA 12 mg/kg/day,31.7 s
same,Time (s) in Open Arm,[3]; QBA 24 mg/kg/day,31.7 s
same,TNFα (pg/mL)/Cell Numbers,[4]; QBA 50 μM 1 h before LPS 100 ng/mL,0.409 (pg/mL)/Cell Numbers
same,TNFα (pg/mL)/Cell Numbers,[4]; QBA 100 μM 1 h before LPS 100 ng/mL,0.456 (pg/mL)/Cell Numbers
same,TNFα (pg/mL)/Cell Numbers,[4]; QBA 500 μM 1 h before LPS 100 ng/mL,0.427 (pg/mL)/Cell Numbers
same,TNFα (pg/mL)/Cell Numbers,[4]; QBA 1000 μM 1 h before LPS 100 ng/mL,0.261 (pg/mL)/Cell Numbers
same,TNFα (pg/mL)/Cell Numbers,[4]; QBA 2500 μM 1 h before LPS 100 ng/mL,0.252 (pg/mL)/Cell Numbers
same,TNFα (pg/mL)/Cell Numbers,[4]; QBA 5000 μM 1 h before LPS 100 ng/mL,0.150 (pg/mL)/Cell Numbers
same,production of TNFα in immune cells,[4]; summary of Table 10,reduced the production
same,Avg Wt,"[5]; QBA 12 mg/kg/day, study day 0",547.0 g
same,Avg Wt,"[5]; QBA 12 mg/kg/day, study day 4",560.9 g
same,Avg Wt,"[5]; QBA 12 mg/kg/day, study day 11",571.5 g
same,Avg Wt,"[5]; QBA 12 mg/kg/day, study day 18",580.1 g
same,Avg Wt,"[5]; QBA 12 mg/kg/day, study day 25",584.5 g
same,Avg Wt,"[5]; QBA 12 mg/kg/day, study day 32",590.8 g
same,Avg Wt,"[5]; QBA 12 mg/kg/day, study day 39",591.7 g
same,Avg Wt,"[5]; QBA 12 mg/kg/day, study day 46",594.3 g
same,Avg Wt,"[5]; QBA 12 mg/kg/day, study day 53",595.4 g
same,Avg Wt,"[5]; QBA 12 mg/kg/day, study day 60",598.7 g
same,Avg Wt,"[5]; QBA 12 mg/kg/day, study day 67",597.8 g
same,Avg Wt,"[5]; QBA 12 mg/kg/day, study day 74",603.7 g
same,Avg Wt,"[5]; QBA 12 mg/kg/day, study day 81",607.3 g
same,Avg Wt,"[5]; QBA 12 mg/kg/day, study day 88",608.5 g
same,Avg Wt,"[5]; QBA 12 mg/kg/day, study day 95",612.8 g
same,Avg Wt,"[5]; QBA 12 mg/kg/day, study day 102",614.5 g
same,Avg Wt,"[5]; QBA 12 mg/kg/day, study day 109",617.0 g
same,Avg Wt,"[5]; QBA 12 mg/kg/day, study day 116",617.2 g
same,Avg Wt,"[5]; QBA 12 mg/kg/day, study day 123",617.3 g
same,Avg Wt,"[5]; QBA 12 mg/kg/day, study day 130",616.9 g
same,Avg Wt,"[5]; QBA 12 mg/kg/day, study day 137",621.5 g
same,Avg Wt,"[5]; QBA 12 mg/kg/day, study day 144",619.1 g
same,Avg Wt,"[5]; QBA 12 mg/kg/day, study day 151",620.5 g
same,Avg Wt,"[5]; QBA 24 mg/kg/day, study day 0",551.5 g
same,Avg Wt,"[5]; QBA 24 mg/kg/day, study day 4",566.8 g
same,Avg Wt,"[5]; QBA 24 mg/kg/day, study day 11",573.4 g
same,Avg Wt,"[5]; QBA 24 mg/kg/day, study day 18",585.7 g
same,Avg Wt,"[5]; QBA 24 mg/kg/day, study day 25",593.1 g
same,Avg Wt,"[5]; QBA 24 mg/kg/day, study day 32",596.0 g
same,Avg Wt,"[5]; QBA 24 mg/kg/day, study day 39",599.7 g
same,Avg Wt,"[5]; QBA 24 mg/kg/day, study day 46",601.5 g
same,Avg Wt,"[5]; QBA 24 mg/kg/day, study day 53",601.8 g
same,Avg Wt,"[5]; QBA 24 mg/kg/day, study day 60",606.5 g
same,Avg Wt,"[5]; QBA 24 mg/kg/day, study day 67",607.5 g
same,Avg Wt,"[5]; QBA 24 mg/kg/day, study day 74",611.8 g
same,Avg Wt,"[5]; QBA 24 mg/kg/day, study day 81",614.5 g
same,Avg Wt,"[5]; QBA 24 mg/kg/day, study day 88",617.8 g
same,Avg Wt,"[5]; QBA 24 mg/kg/day, study day 95",620.2 g
same,Avg Wt,"[5]; QBA 24 mg/kg/day, study day 102",623.9 g
same,Avg Wt,"[5]; QBA 24 mg/kg/day, study day 109",627.4 g
same,Avg Wt,"[5]; QBA 24 mg/kg/day, study day 116",630.3 g
same,Avg Wt,"[5]; QBA 24 mg/kg/day, study day 123",629.2 g
same,Avg Wt,"[5]; QBA 24 mg/kg/day, study day 130",630.3 g
same,Avg Wt,"[5]; QBA 24 mg/kg/day, study day 137",633.5 g
same,Avg Wt,"[5]; QBA 24 mg/kg/day, study day 144",642.1 g
same,Avg Wt,"[5]; QBA 24 mg/kg/day, study day 151",638.6 g
same,"body weight versus control, repeated measures ANOVA",[5]; all doses versus 0 mg/kg/day QBA or 0 mg/kg/day QBA+0.07% DHA,small but significant increase
same,body weight maintenance in aging male rats,[5]; summary of Table 14,helped to maintain healthy body weight
same,Conception Index (%),[6]; QBA 0.4 mg/kg/day,112.5%
same,Conception Index (%),[6]; QBA 4 mg/kg/day,107.7%
same,Conception Index (%),[6]; QBA 12 mg/kg/day,225.0%
same,Conception Index (%),[6]; QBA 24 mg/kg/day,200.0%
same,conception index,[6]; summary of Table 17,increased the conception index
same,neurogenesis and gliogenesis from stem cells,stem cells,stimulation of neurogenesis from stem cells while inhibiting gliogenesis
